Reference: BigSolDB 2.1

O=C1C(CCS(=O)c2ccccc2)C(=O)N(c2ccccc2)N1c1ccccc1 (stereo not drawn)
solubility (mole fraction)
Conditions	283.15 K	288.15 K	293.15 K	298.15 K	303.15 K	308.15 K	313.15 K	318.15 K	323.15 K
in 2-butanone	0.0136	0.0157	0.0199	0.0241	0.0288	0.0333	0.0388	0.0495	0.0601
in acetone	0.0138	0.0165	0.02	0.0244	0.0293	0.0371	0.0452	0.0524	0.0745
in acetonitrile	0.0131	0.0155	0.0213	0.0265	0.0334	0.0474	0.0648	0.0799	0.103
in ethanol	0.00156	0.00211	0.0027	0.00356	0.0045	0.00542	0.00719	0.00956	0.0137
in isopropanol	0.000256	0.000609	0.00104	0.00204	0.00302	0.0045	0.00583	0.0071	0.00937
in methanol	0.0026	0.00318	0.00401	0.00508	0.00679	0.00864	0.0114	0.0176	0.0278
in methyl acetate	0.00978	0.0109	0.0139	0.0161	0.0195	0.0222	0.0272	0.0345	0.0485
in n-butanol	0.00169	0.00245	0.00314	0.00438	0.00592	0.00724	0.00971	0.0129	0.0166
in n-pentanol	0.00284	0.00357	0.00429	0.0053	0.00627	0.00725	0.00824	0.00921	0.0109
in n-propanol	0.00198	0.00266	0.00347	0.00485	0.00617	0.00752	0.0101	0.0132	0.0183
in sec-butanol	0.0024	0.00301	0.00388	0.0047	0.00546	0.00655	0.00876	0.0109	0.0156
in water	3.6e-05	6.32e-05	0.000111	0.000176	0.000264	0.000352	0.000479	0.000615	0.000777
